From ChEMBL document CHEMBL5543167, “Design, Synthesis, and Biological Evaluation of Novel EGFR PROTACs Targeting C797S Mutation” (J Med Chem, 2024)
pIC50, pKd: −log10 of the molar value. Activity calls are given as the source filed them. The calls are words filed in the database; no cut-off is given here.

Experiments:
[1] = system: Protein cereblon/Epidermal growth factor receptor (Homo sapiens), P00533+Q96SW2 [L858R,T790M,C797S]; assay: (§1) PROTAC activity at CRBN/EGFR L858R/T790M/C797S mutant in human H1975-TM cells assessed as induction of EGFR degradation by measuring remaining activity at 50 nM preincubated with MG132 for 6 hrs followed by compound addition and measured after 24 hrs by Western blot analysis (reference value: 100%); assay type: cell-based
[2] = system: Protein cereblon/Epidermal growth factor receptor (Homo sapiens), P00533+Q96SW2 [L858R,T790M,C797S]; assay: PROTAC activity at CRBN/EGFR L858R/T790M/C797S mutant in human H1975-TM cells assessed as induction of EGFR degradation by measuring remaining activity at 100 nM preincubated for 24 hrs followed by compound washout and measured after 6 hrs by Western blot analysis (reference value: 100%); assay type: cell-based
[3] = biological target: Ribosomal protein S6 kinase alpha-1 (Homo sapiens) (UniProt Q15418); assay: Induction of RPS6KA1 degradation in human H1975-TM cells at 50 nM incubated for 24 hrs; assay type: cell-based
[4] = Toxicity in BALB/c nude mouse xenografted with human H1975-TM cells assessed as spleen lesions at 25 to 100 mg/kg, po administered once daily for 31 days by Hematoxylin and eosin staining based analysis; assay type: organism-based; conditions: in vivo, 744 h, dose 25-100 mg/kg, time 31 day
Mus musculus [5] = assay: In vivo inhibition of EGFR signaling in BALB/c nude mouse xenografted with human […] cells assessed as reduction in ERK activation at 25 to 100 mg/kg, po administered once daily for 31 days by Western blot analysis; assay type: functional, organism-based; conditions: dose 25-100 mg/kg, time 31.0 day
H1975-TM [6] = assay: Antitumor activity against human H1975-TM cells xenografted in BALB/c nude mouse assessed as increase in tumor necrosis at 25 to 100 mg/kg, po administered once daily for 31 days by H&E staining based light microscopic analysis; assay type: functional, organism-based; conditions: dose 25-100 mg/kg, time 31.0 day
[7] = system: Protein cereblon/Epidermal growth factor receptor (Homo sapiens), P00533+Q96SW2 [L858R,T790M,C797S]; assay: PROTAC activity at CRBN/EGFR L858R/T790M/C797S mutant in human H1975-TM cells assessed as induction of EGFR degradation by measuring maximal efficacy at 300 nM incubated for 24 hrs by Western blot analysis relative to control; assay type: cell-based
[8] = biological target: Hepatocyte growth factor receptor (Homo sapiens) (UniProt P08581); assay: Induction of MET degradation in human H1975-TM cells at 50 nM incubated for 24 hrs; assay type: cell-based
[9] = system: Protein cereblon/Epidermal growth factor receptor (Homo sapiens), P00533+Q96SW2 [L858R,T790M,C797S]; assay: as §1, with “MLN4924” for “MG132”; assay type: cell-based
Mus musculus [10] = assay: In vivo inhibition of EGFR signaling in BALB/c nude mouse xenografted with human […] cells assessed as reduction in EGFR phosphorylation at 25 to 100 mg/kg, po administered once daily for 31 days by Western blot analysis; assay type: functional, organism-based; conditions: dose 25-100 mg/kg, time 31.0 day
[11] = biological target: Protein cereblon/Epidermal growth factor receptor (Homo sapiens, UniProt P00533+Q96SW2, T790M/L858R); assay: (§2) PROTAC activity at CRBN/EGFR L858R/T790M mutant in human NCI-H1975 cells assessed as induction of EGFR degradation incubated for 24 hrs by Western blot analysis; assay type: cell-based
[12] = system: Protein cereblon/Epidermal growth factor receptor (Homo sapiens), P00533+Q96SW2 [L858R,T790M]; assay: as §2; assay type: cell-based
[13] = system: Protein cereblon/Epidermal growth factor receptor (Homo sapiens), P00533+Q96SW2 [L858R,T790M,C797S]; assay: PROTAC activity at CRBN/EGFR L858R/T790M/C797S mutant in human H1975-TM cells assessed as induction of EGFR degradation by measuring remaining activity at 33 nM incubated for 24 hrs by Western blot analysis (reference value: 100%); assay type: cell-based
[14] = Antiproliferative activity against human HI975-TM cells harboring EGFR L858R/T790M/C797S mutant assessed as inhibition of cell growth incubated for 72 hrs by CCK-8 assay; assay type: functional, cell-based; conditions: H1975-TM
[15] = biological target: Protein cereblon/Epidermal growth factor receptor (Homo sapiens, UniProt P00533+Q96SW2); assay: (§3) PROTAC activity at CRBN/EGFR exon 19 deletion/T790M/C797S mutant in human PC-9-TM cells assessed as induction of EGFR degradation incubated for 24 hrs by Western blot analysis; assay type: cell-based
[16] = system: Protein cereblon/Epidermal growth factor receptor (Homo sapiens), P00533+Q96SW2 [UNDEFINED MUTATION]; assay: as §3; assay type: cell-based
PC-9 = assay: Antiproliferative activity against human PC-9 cells harboring EGFR exon 19 deletion mutant assessed as inhibition of cell proliferation incubated for 72 hrs by CCK8 assay; assay type: functional, cell-based; conditions: PC-9, 72 h
[17] = biological target: Epidermal growth factor receptor (Homo sapiens, UniProt P00533, C797S/L858R/T790M); assay: Binding affinity to EGFR L858R/T790M/C797S mutant (unknown origin) assessed as dissociation constant incubated for 10 mins under dark condition by MST analysis
[18] = AUC (0 to infinity) in male Sprague-Dawley rat at 50 mg/kg, po measured after 24 hrs by LC-MS/MS analysis; assay type: ADME, organism-based; conditions: in vivo
[19] = biological target: Sodium-coupled neutral amino acid symporter 2 (Homo sapiens) (UniProt Q96QD8); assay: Induction of SLC38A2 degradation in human H1975-TM cells at 50 nM incubated for 24 hrs; assay type: cell-based
H1975-TM [20] = assay: Induction of apoptosis in human H1975-TM cells harboring EGFR L858R/T790M/C797S mutant incubated for 24 hrs by Annexin V-FITC/PI staining based flow cytometric analysis; assay type: functional, cell-based; conditions: dose 33-100 nM
[21] = Tmax in male Sprague-Dawley rat at 50 mg/kg, po measured after 24 hrs by LC-MS/MS analysis; assay type: ADME, organism-based; conditions: in vivo
[22] = Antitumor activity against human H1975-TM cells xenografted in BALB/c nude mouse assessed as tumor growth inhibition at 100 mg/kg, po administered once daily for 31 days relative to control; assay type: functional; conditions: 744 h, time 31 day, read-out: TGI
[23] = system: Protein cereblon/Epidermal growth factor receptor (Homo sapiens), P00533+Q96SW2 [L858R,T790M,C797S]; assay: PROTAC activity at CRBN/EGFR L858R/T790M/C797S mutant in human H1975-TM cells assessed as induction of EGFR degradation by measuring remaining activity at 100 nM incubated for 24 hrs by Western blot analysis (reference value: 100%); assay type: cell-based
[24] = system: Protein cereblon/Epidermal growth factor receptor (Homo sapiens), P00533+Q96SW2 [L858R,T790M,C797S]; assay: PROTAC activity at CRBN/EGFR L858R/T790M/C797S mutant in human H1975-TM cells assessed as induction of EGFR degradation by measuring remaining activity at 300 nM incubated for 24 hrs by Western blot analysis (reference value: 100%); assay type: cell-based
[25] = Antiproliferative activity against human PC-9-TM cells harboring EGFR exon 19 deletion/T790M/[…] mutant assessed as inhibition of cell proliferation incubated for 72 hrs by CCK8 assay; assay type: functional, cell-based
[26] = Toxicity in BALB/c nude mouse xenografted with human H1975-TM cells assessed as lung lesions at 25 to 100 mg/kg, po administered once daily for 31 days by Hematoxylin and eosin staining based analysis; assay type: organism-based; conditions: in vivo, 744 h, dose 25-100 mg/kg, time 31 day
[27] = Inhibition of colony formation in human H1975-TM cells harboring EGFR L858R/T790M/C797S mutant at 33 nM incubated for 14 days by crystal violet staining based analysis relative to control; assay type: functional; conditions: 336 h, time 14 day

Hepatocyte growth factor receptor (Homo sapiens), sequence (P08581 whole entry): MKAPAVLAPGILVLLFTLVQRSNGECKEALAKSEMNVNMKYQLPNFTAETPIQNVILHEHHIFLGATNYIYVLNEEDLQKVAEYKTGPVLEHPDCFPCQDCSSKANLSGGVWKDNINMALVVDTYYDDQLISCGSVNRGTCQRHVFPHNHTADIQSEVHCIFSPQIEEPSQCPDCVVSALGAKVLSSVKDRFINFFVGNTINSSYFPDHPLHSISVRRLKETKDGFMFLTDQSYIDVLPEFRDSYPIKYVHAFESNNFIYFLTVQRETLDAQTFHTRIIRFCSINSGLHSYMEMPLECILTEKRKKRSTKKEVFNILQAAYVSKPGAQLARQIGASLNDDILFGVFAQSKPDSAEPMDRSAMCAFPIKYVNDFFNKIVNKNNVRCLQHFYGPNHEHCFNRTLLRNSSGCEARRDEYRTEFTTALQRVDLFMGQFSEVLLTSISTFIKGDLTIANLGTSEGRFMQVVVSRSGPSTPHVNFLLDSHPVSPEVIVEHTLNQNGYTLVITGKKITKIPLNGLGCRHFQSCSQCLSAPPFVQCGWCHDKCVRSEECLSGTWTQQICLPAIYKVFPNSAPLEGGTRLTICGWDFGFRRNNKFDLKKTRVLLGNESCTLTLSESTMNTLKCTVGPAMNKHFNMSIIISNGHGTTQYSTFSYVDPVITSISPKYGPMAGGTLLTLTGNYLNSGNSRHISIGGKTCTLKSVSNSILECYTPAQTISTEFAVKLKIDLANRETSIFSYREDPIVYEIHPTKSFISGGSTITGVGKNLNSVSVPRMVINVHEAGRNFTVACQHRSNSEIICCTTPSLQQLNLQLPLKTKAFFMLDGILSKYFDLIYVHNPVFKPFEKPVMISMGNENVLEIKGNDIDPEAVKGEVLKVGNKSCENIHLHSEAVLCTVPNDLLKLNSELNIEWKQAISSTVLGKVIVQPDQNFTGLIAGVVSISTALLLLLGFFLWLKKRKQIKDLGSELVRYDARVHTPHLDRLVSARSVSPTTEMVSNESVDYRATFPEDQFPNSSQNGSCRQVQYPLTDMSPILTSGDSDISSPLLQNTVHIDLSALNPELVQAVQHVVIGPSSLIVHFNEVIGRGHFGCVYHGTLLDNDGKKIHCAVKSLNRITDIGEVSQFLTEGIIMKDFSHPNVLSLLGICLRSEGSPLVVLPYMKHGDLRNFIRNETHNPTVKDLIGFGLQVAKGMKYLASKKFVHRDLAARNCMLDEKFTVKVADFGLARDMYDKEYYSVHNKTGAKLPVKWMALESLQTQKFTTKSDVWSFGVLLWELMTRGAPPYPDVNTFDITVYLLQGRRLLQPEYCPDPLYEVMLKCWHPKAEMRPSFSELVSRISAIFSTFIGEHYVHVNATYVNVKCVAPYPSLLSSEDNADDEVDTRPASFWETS
Ribosomal protein S6 kinase alpha-1 (Homo sapiens), sequence (Q15418 whole entry): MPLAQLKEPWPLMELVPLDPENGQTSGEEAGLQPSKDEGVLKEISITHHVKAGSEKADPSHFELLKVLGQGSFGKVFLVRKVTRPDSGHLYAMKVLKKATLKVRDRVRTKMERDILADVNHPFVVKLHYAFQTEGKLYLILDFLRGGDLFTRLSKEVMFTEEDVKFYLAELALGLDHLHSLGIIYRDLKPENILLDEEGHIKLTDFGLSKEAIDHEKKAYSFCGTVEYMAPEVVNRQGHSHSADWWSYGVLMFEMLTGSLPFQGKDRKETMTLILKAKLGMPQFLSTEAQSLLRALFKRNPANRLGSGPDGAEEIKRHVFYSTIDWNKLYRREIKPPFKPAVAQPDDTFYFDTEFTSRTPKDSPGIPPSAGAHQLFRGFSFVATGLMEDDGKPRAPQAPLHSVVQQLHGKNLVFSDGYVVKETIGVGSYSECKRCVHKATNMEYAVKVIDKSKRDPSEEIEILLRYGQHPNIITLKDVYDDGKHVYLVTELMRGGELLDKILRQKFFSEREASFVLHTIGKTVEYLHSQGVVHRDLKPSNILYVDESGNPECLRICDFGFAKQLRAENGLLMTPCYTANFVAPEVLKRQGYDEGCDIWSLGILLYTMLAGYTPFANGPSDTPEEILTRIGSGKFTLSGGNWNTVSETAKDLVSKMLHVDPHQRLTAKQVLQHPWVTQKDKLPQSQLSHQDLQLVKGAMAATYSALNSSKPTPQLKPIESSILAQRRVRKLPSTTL
Sodium-coupled neutral amino acid symporter 2 (Homo sapiens), sequence (Q96QD8 whole entry): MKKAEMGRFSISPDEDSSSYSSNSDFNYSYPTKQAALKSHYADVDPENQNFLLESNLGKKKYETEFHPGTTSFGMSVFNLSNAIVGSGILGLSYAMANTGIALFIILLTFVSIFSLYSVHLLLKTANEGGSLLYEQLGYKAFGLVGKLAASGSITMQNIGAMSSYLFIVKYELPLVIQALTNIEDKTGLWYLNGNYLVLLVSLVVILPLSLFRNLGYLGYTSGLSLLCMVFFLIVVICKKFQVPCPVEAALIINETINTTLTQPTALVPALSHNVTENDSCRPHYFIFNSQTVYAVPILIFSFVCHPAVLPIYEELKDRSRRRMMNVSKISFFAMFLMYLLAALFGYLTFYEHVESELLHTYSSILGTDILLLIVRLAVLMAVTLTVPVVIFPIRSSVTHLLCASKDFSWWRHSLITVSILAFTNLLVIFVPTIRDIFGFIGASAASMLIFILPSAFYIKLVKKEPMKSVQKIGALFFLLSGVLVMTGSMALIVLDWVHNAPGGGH

For `CCS(=O)(=O)n1cc(-c2nc(Nc3ccc(N4CCN(CCCCCCC(=O)Nc5cccc6c5CN(C5CCC(=O)NC5=O)C6=O)CC4)cc3)ncc2C(F)(F)F)c2ccccc21` (stereo not drawn), the Activity [1] was 73.6%, the Activity [2] was 36.1% and the Activity [3] was “Active”. The Activity [4] was “Non-Toxic”, the inhibition (Mus musculus [5]) was “Active” and the Activity (H1975-TM [6]) was “Active”. For the same compound, the Emax [7] was greater than 95%, the Activity [8] was “Active” and the Activity [9] was 51.7%. For the same compound, the inhibition (Mus musculus [10]) was “Active”, the DC50 [11] was 88.5 nM and the Activity [12] was “Dose-Dependent Effect”. It also gave an Activity [13] of 6.5%, a pIC50 [14] of 7.99 and a DC50 [15] of 36.5 nM. The Activity [16] was “Dose-Dependent Effect”, the pIC50 (PC-9) was 7.76 and the pKd [17] was 6.62. The AUC(0-inf) [18] was 750 ng·h/mL, the Activity [19] was “Active” and the Activity (H1975-TM [20]) was “Dose-Dependent Effect”. For the same compound, the Tmax [21] was 5.7 h, the inhibition in vivo at 100 mg/kg [22] was 66.4% and the Activity [23] was 2.3%. The Activity [24] was 0.1%, the pIC50 [25] was 7.36 and the Activity [26] was “Non-Toxic”. It also gave an inhibition at 0.033 µM [27] of roughly 100%.
